Assay results from paper PMC5601486, “Identification of 4-phenylquinolin-2(1H)-one as a specific allosteric inhibitor of Akt” (Scientific Reports, 2017).

Columns and labels:
Experiment in all cases: KINOMEscan
Settings in all cases: 50000 nM
PKAC-alpha = test system: PKAC-alpha
Method: KINOMEscan™ selectivity screen
(§1) Briefly, Kinase-tagged T7 phage strains were grown in parallel in an E. coli host derived from the BL21 strain. E. coli were grown to log-phase and infected with T7 phage from a frozen stock and incubated with shaking at 32°C until lysis (90-150 minutes). The kinases were produced in HEK-293 cells and subsequently tagged with DNA for qPCR detection. Streptavidin-coated magnetic beads were treated with biotinylated small molecule ligands to generate affinity resins for kinase
(§2) inhibitor or DMSO control was performed in polypropylene 384-well plates for 1 hr at room temperature. After wash with PBS buffer containing 0.05% Tween 20, the beads were incubated in elution buffer (PBS containing 0.05 % Tween 20 and 0.5 μM non-biotinylated affinity ligand) for 30 minutes at room temperature. The kinase concentration in the eluates was measured by qPCR.

NLK = test system: NLK
Method: KINOMEscan™ selectivity screen
(§3) The assay was perfor med at DiscoveRx Corporation according the methods published previously5. Briefly, Kinase-tagged T7 phage strains were grown in parallel in an E. coli host derived from the BL21 strain. E. coli were grown to log-phase and infected with T7 phage from a frozen stock and incubated with shaking at 32°C until lysis (90-150 minutes). The kinases were produced in HEK-293 cells and subsequently tagged with DNA for qPCR detection. Streptavidin-coated magnetic beads were treated with biotinylated small molecule ligands to generate affinity resins for kinase
as §2

WEE2 = test system: WEE2
Method: KINOMEscan™ selectivity screen
(§4) The assay was perfor med at DiscoveRx Corporation according the methods published previously5. […] The kinases were produced in HEK-293 cells and subsequently tagged with DNA for qPCR detection. Streptavidin-coated magnetic beads were treated with biotinylated small molecule ligands to generate affinity resins for kinase
as §2

BIKE = test system: BIKE
Method: KINOMEscan™ selectivity screen
as §4, §2

MEK1 = test system: MEK1
Method: KINOMEscan™ selectivity screen
as §1, §2

CDC2L2 = test system: CDC2L2
Method: KINOMEscan™ selectivity screen
as §1, §2

RET(V804M) = test system: RET(V804M)
Method: KINOMEscan™ selectivity screen
as §3, §2

PIK3C2B = test system: PIK3C2B
Method: KINOMEscan™ selectivity screen
as §1, §2

PIM2 = test system: PIM2
Method: KINOMEscan™ selectivity screen
as §3, §2

[1] = test system: TYK2(JH2domain-pseudokinase)
Method: KINOMEscan™ selectivity screen
as §3, §2

LIMK1 = test system: LIMK1
Method: KINOMEscan™ selectivity screen
as §3, §2

DYRK1B = test system: DYRK1B
Method: KINOMEscan™ selectivity screen
as §4, §2

MET(M1250T) = test system: MET(M1250T)
Method: KINOMEscan™ selectivity screen
as §4, §2

TNK1 = test system: TNK1
Method: KINOMEscan™ selectivity screen
as §3, §2

MKK7 = test system: MKK7
Method: KINOMEscan™ selectivity screen
as §3, §2

[2] = test system: ABL1(Y253F)-phosphorylated
Method: KINOMEscan™ selectivity screen
as §3, §2

LYN = test system: LYN
Method: KINOMEscan™ selectivity screen
as §3, §2

DAPK3 = test system: DAPK3
Method: KINOMEscan™ selectivity screen
as §1, §2

ERBB4 = test system: ERBB4
Method: KINOMEscan™ selectivity screen
as §3, §2

PIK3CA(H1047L) = test system: PIK3CA(H1047L)
Method: KINOMEscan™ selectivity screen
as §3, §2

CDK5 = test system: CDK5
Method: KINOMEscan™ selectivity screen
as §3, §2

ABL1-nonphosphorylated = test system: ABL1-nonphosphorylated
Method: KINOMEscan™ selectivity screen
as §3, §2

ROS1 = test system: ROS1
Method: KINOMEscan™ selectivity screen
as §3, §2

PRKD1 = test system: PRKD1
Method: KINOMEscan™ selectivity screen
as §3, §2

ERN1 = test system: ERN1
Method: KINOMEscan™ selectivity screen
as §1, §2

NEK7 = test system: NEK7
Method: KINOMEscan™ selectivity screen
as §3, §2

SRPK3 = test system: SRPK3
Method: KINOMEscan™ selectivity screen
as §3, §2

MARK4 = test system: MARK4
Method: KINOMEscan™ selectivity screen
as §3, §2

ALK = test system: ALK
Method: KINOMEscan™ selectivity screen
as §3, §2

PIK3CG = test system: PIK3CG
Method: KINOMEscan™ selectivity screen
as §1, §2

BRK = test system: BRK
Method: KINOMEscan™ selectivity screen
as §3, §2

PIK3CA(E545A) = test system: PIK3CA(E545A)
Method: KINOMEscan™ selectivity screen
as §1, §2

CDK11 = test system: CDK11
Method: KINOMEscan™ selectivity screen
as §3, §2

FLT3(D835Y) = test system: FLT3(D835Y)
Method: KINOMEscan™ selectivity screen
as §3, §2

MST1R = test system: MST1R
Method: KINOMEscan™ selectivity screen
as §3, §2

MYLK = test system: MYLK
Method: KINOMEscan™ selectivity screen
as §3, §2

BTK = test system: BTK
Method: KINOMEscan™ selectivity screen
as §3, §2

LZK = test system: LZK
Method: KINOMEscan™ selectivity screen
as §1, §2

NEK1 = test system: NEK1
Method: as §1, §2

FLT3 = test system: FLT3
Method: KINOMEscan™ selectivity screen
as §3, §2

PKNB(M.tuberculosis) = test system: T1, PKNB(M.tuberculosis); format: binding
T1 construct: purchased DiscoveRx KINOMEscan

MEK2 = test system: MEK2
Method: KINOMEscan™ selectivity screen
as §3, §2

MAP4K2 = test system: MAP4K2
Method: KINOMEscan™ selectivity screen
as §3, §2

DYRK1A = test system: DYRK1A
Method: KINOMEscan™ selectivity screen
as §3, §2

FAK = test system: FAK
Method: KINOMEscan™ selectivity screen
as §3, §2

FLT3(ITD,D835V) = test system: FLT3(ITD,D835V)
Method: KINOMEscan™ selectivity screen
as §3, §2

PAK4 = test system: PAK4
Method: as §1, §2

PIK3CA(Q546K) = test system: PIK3CA(Q546K)
Method: KINOMEscan™ selectivity screen
as §1, §2

DRAK1 = test system: DRAK1
Method: KINOMEscan™ selectivity screen
as §1, §2

EPHB2 = test system: EPHB2
Method: KINOMEscan™ selectivity screen
as §3, §2

PIK3CA(I800L) = test system: PIK3CA(I800L)
Method: KINOMEscan™ selectivity screen
as §3, §2

FLT3-autoinhibited = test system: FLT3-autoinhibited
Method: KINOMEscan™ selectivity screen
as §3, §2

LCK = test system: LCK
Method: KINOMEscan™ selectivity screen
as §3, §2

SBK1 = test system: SBK1
Method: KINOMEscan™ selectivity screen
as §3, §2

Oc1cc(-c2ccccc2)c2ccccc2n1 [G7, 4-phenylquinolin-2(1H)-one]
Percent Control (PKAC-alpha): 87% | Percent Control (NLK): 82% | Percent Control (WEE2): 84% | Percent Control (BIKE): 52% | Percent Control (MEK1): 69% | Percent Control (CDC2L2): 88% | Percent Control (RET(V804M)): 85% | Percent Control (PIK3C2B): 100% | Percent Control (PIM2): 68% | Percent Control [1]: 15% | Percent Control (LIMK1): 100% | Percent Control (DYRK1B): 76% | Percent Control (MET(M1250T)): 96% | Percent Control (TNK1): 100% | Percent Control (MKK7): 100% | Percent Control [2]: 56% | Percent Control (LYN): 88% | Percent Control (DAPK3): 74% | Percent Control (ERBB4): 86% | Percent Control (PIK3CA(H1047L)): 89% | Percent Control (CDK5): 75% | Percent Control (ABL1-nonphosphorylated): 81% | Percent Control (ROS1): 98% | Percent Control (PRKD1): 96% | Percent Control (ERN1): 69% | Percent Control (NEK7): 78% | Percent Control (SRPK3): 100% | Percent Control (MARK4): 88% | Percent Control (ALK): 95% | Percent Control (PIK3CG): 94% | Percent Control (BRK): 96% | Percent Control (PIK3CA(E545A)): 100% | Percent Control (CDK11): 91% | Percent Control (FLT3(D835Y)): 33% | Percent Control (MST1R): 100% | Percent Control (MYLK): 90% | Percent Control (BTK): 50% | Percent Control (LZK): 94% | Percent Control (NEK1): 88% | Percent Control (FLT3): 13% | Percent Control (PKNB(M.tuberculosis)): 43% | Percent Control (MEK2): 72% | Percent Control (MAP4K2): 100% | Percent Control (DYRK1A): 54% | Percent Control (FAK): 93% | Percent Control (FLT3(ITD,D835V)): 34% | Percent Control (PAK4): 84% | Percent Control (PIK3CA(Q546K)): 83% | Percent Control (DRAK1): 65% | Percent Control (EPHB2): 93% | Percent Control (PIK3CA(I800L)): 95% | Percent Control (FLT3-autoinhibited): 54% | Percent Control (LCK): 80% | Percent Control (SBK1): 86%
